From patent US20250049970A1, “DLL3 TARGETING PEPTIDES AND CONSTRUCTS THEREOF” (MARIANA ONCOLOGY INC., priority 2023, published 2025) come the findings set out here.

Data set [1] deals with nude mice bearing SHP-77 tumors. In words: Ex vivo biodistribution of radiolabeled peptides (% IA/g) in nude mice bearing SHP-77 tumors. To be noted: [177Lu]Lu labelling, 24 hours post-injection, intravenous. As to the method:
Mice were intravenously injected (via the lateral tail vein) with a bolus dose of the radiolabeled peptides for ex vivo biodistribution studies when tumor volumes were in range of 200-400 mm^3 for xenograft mice and when age of the mice was 5-7 weeks for tumor naïve mice studies. To assess the amount of radionuclide injected into individual mice the syringe was assayed in a dose calibrator before and after injection for [^177Lu]Lu-peptide, then the injected dose was determined from the weight difference and concentration of the radionuclide solution.
Mice were euthanized at pre-determined time points and selected tissues were resected and collected into pre-weighed tubes. The tubes were then reweighed post resection, the difference giving the weight of each tissue. Radioactivity in each tissue was measured using a gamma counter. Counts were decay corrected to the time of injection and percentage of injected activity per gram (% IA/g) was calculated for each tissue based on the injected activity into each individual mouse. Injected activity was converted to counts based on the sensitivity of the gamma counter. The counts in tissue were then converted to the percentage of injected activity and this was divided by the mass of tissue to give % IA/g.

The next data set concerns the target T1, DLL3 (Homo sapiens, UniProt Q9NYJ7).
T1 sequence (Q9NYJ7 27-618): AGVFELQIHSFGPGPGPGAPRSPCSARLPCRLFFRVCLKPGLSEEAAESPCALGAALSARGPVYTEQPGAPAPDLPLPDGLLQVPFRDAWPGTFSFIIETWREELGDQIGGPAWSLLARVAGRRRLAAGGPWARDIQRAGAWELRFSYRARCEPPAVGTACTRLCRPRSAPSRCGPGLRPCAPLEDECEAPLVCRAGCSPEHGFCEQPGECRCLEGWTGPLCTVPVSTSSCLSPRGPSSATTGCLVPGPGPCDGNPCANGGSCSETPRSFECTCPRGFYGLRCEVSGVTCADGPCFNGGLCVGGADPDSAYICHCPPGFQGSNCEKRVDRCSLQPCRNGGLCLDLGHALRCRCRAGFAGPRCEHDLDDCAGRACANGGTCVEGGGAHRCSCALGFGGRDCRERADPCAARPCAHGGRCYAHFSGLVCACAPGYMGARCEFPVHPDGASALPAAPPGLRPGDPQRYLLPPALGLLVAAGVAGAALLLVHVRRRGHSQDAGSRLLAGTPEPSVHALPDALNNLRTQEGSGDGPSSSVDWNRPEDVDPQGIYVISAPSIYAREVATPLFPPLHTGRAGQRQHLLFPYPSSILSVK
In words: SPR KD, biotinylated human DLL3 on streptavidin chip (Table 8). Further details: biotin (biotinylated). To be noted: biotinylated human DLL3 on streptavidin sensor chip, 25° C., 1:1 binding model; read-out: SPR KD. The text has this:
Biotinylated target ligand human DLL3 was immobilized on a streptavidin sensor chip. A reference surface was set up for nonspecific binding and refractive index changes. […] Sensorgram curves were fitted with 1:1 binding model, and affinity and kinetic parameters were obtained using Biacore Insight evaluation 4.0. software.

Data set [2] has as its target T2, DLL3 (target ligand immobilized on a SA sensor chip via streptavidin capture) (Homo sapiens (Human), UniProt Q9NYJ7 27-492, limits assumed).
T2 sequence: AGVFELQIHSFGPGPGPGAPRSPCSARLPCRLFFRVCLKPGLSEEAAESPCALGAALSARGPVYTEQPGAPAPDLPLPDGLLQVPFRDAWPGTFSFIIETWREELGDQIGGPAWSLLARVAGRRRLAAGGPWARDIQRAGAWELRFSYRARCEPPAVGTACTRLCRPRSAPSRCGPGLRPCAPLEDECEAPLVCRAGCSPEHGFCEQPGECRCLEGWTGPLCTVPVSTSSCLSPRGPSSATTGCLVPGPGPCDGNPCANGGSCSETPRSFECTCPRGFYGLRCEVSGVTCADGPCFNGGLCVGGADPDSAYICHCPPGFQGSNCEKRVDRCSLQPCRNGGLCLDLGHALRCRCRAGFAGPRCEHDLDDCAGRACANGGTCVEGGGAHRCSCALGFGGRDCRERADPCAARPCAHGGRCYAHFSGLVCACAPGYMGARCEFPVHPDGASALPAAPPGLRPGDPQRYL
Description: SPR, Biacore S200, target ligand on SA chip, 25 C, 1:1 fit. As to the method: Target ligand was immobilized on a SA sensor chip via streptavidin capture. A reference surface was set up for nonspecific binding and refractive index changes. For analysis of the kinetics of interactions, varying concentrations of peptides were injected at a flow rate of 50 μL/minute using running buffer containing 20 mM phosphate buffer with 2.7 mM KCl, 137 mM NaCl and 0.05% Surfactant P20. Sensorgram curves were fitted with 1:1 binding model, and affinity and kinetic parameters were obtained using either Biacore S200 evaluation software 1.1.1 or Biacore Insight evaluation 4.0.

*1 amine or outer side, *2 acyl side, *3 side chain or, on linkers, in order; H or OH if unused. Where a SMILES comes first, the peptide text is derived from it. Bridges are numbered along the chain shown (N, C = ends). [ ]: non-standard residue; d: D form. The star is where a group is joined. ξ: configuration not given here. Ala(piperidin-4-yl) = O=C([C@H](CC1CCN([*:3])CC1)N[*:1])[*:2]; DOTA = O=C(O)CN1CCN(CC(=O)O)CCN(CC(=O)*)CCN(CC(=O)O)CC1; 1Nal = N[C@@H](Cc1cccc2ccccc12)C(=O)O; 2Nal = N[C@@H](Cc1ccc2ccccc2c1)C(=O)O; NMetBuAla = CN[C@@H](CC(C)(C)C)C(=O)O; Gly(4-THP) = N[C@H](C(=O)O)C1CCOCC1; tBuAla = CC(C)(C)C[C@H](N)C(=O)O; Thr(3ξ) = CC(O)[C@H](N)C(=O)O; Chg = N[C@H](C(=O)O)C1CCCCC1; αMeP = C[C@@]1(C(=O)O)CCCN1; CH2 = C([*:1])[*:2]

Consider `CC(=O)N[C@@H](Cc1c[nH]c2ccccc12)C(=O)N[C@H](C(=O)N(C)[C@@H](CC(C)(C)C)C(=O)N[C@H]1CSCSC[C@@H](C(=O)N[C@@H](Cc2c[nH]c3ccccc23)C(=O)N2CCC[C@@]2(C)C(=O)O)NC(=O)[C@H](CC(=O)O)NC(=O)[C@H](CCCCNC(=O)CN2CCN(CC(=O)O)CCN(CC(=O)O)CCN(CC(=O)O)CC2)NC(=O)[C@H](Cc2ccc3ccccc3c2)NC(=O)[C@H](CC(N)=O)NC(=O)[C@H](CC2CCNCC2)NC1=O)C(C)O` (stereo partly drawn) [compound 443, Ac-W-T-(NMe-tBuAla)-C(1)-[3-(4-piperidinyl)-Ala]-N-(2Nal)-Lys(DOTA)-D-C(1)-W-(aMe-P)-CO2H] (Ac-W[Thr(3ξ)][NMetBuAla]C[Ala(piperidin-4-yl)]N[2Nal]K(DOTA)DCW[αMeP]-OH; linker 4-10 via CH2), for which, in data set [1], the “kidney uptake (% IA/g)” value was “C (“C” represents 0 < % IA/g ≤ 10 in)” and the “tumor uptake (% IA/g)” value is listed as “B (“B” represents % IA/g > 5 in tumor)”. Besides, the Kd on DLL3 was less than 1 nM.

Take `CC(=O)N[C@@H](Cc1c[nH]c2ccccc12)C(=O)N[C@H](C(=O)N[C@@H](CC(C)(C)C)C(=O)N[C@H]1CSCSC[C@@H](C(=O)N[C@@H](Cc2c[nH]c3ccccc23)C(=O)N2CCC[C@@]2(C)C(N)=O)NC(=O)[C@H](CC(=O)O)NC(=O)[C@H](CCCCNC(=O)CN2CCN(CC(=O)O)CCN(CC(=O)O)CCN(CC(=O)O)CC2)NC(=O)[C@H](Cc2ccc3ccccc3c2)NC(=O)[C@H](CC(N)=O)NC(=O)[C@H](CC2CCNCC2)NC1=O)[C@@H](C)O` [compound 437, Ac-W-T-(t-Bu-Ala)-C(1)-[3-(4-piperidinyl)-Ala]-N-(2Nal)-Lys(DOTA)-D-C(1)-W-(aMe-P)-CONH2] (Ac-WT[tBuAla]C[Ala(piperidin-4-yl)]N[2Nal]K(DOTA)DCW[αMeP]-NH2; linker 4-10 via CH2): in data set [1], the “kidney uptake (% IA/g)” value is “C (“C” represents 0 < % IA/g ≤ 10 in)” and the “tumor uptake (% IA/g)” value was “B (“B” represents % IA/g > 5 in tumor)”. For the same molecule, on DLL3, the Kd was less than 1 nM. Consider `CC(=O)NCCCC[C@@H](NC(=O)[C@@H]1CCCN1C(=O)[C@H](Cc1c[nH]c2ccccc12)NC(=O)[C@@H]1CSCSC[C@H](NC(=O)[C@H](CC(C)(C)C)NC(=O)[C@@H](NC(=O)[C@H](Cc2c[nH]c3ccccc23)NC(C)=O)[C@@H](C)O)C(=O)N[C@@H](CC2CCNCC2)C(=O)N[C@@H](CC(N)=O)C(=O)N[C@@H](Cc2ccc3ccccc3c2)C(=O)N[C@@H](CCCCNC(=O)CN2CCN(CC(=O)O)CCN(CC(=O)O)CCN(CC(=O)O)CC2)C(=O)N[C@@H](CC(=O)O)C(=O)N1)C(=O)O` [compound 439, Ac-W-T-(t-Bu-Ala)-C(1)-[3-(4-piperidinyl)-Ala]-N-(2Nal)-Lys(DOTA)-D-C(1)-W-P-[D-Lys(Ac)]-COOH] (Ac-WT[tBuAla]C[Ala(piperidin-4-yl)]N[2Nal]K(DOTA)DCWP[dK](Ac)-OH; linker 4-10 via CH2), for which the dissociation constant (Kd) on DLL3 was less than 1 nM. Turning to `CC[C@H](C)[C@H](NC(=O)[C@@H](NC(=O)[C@H](Cc1c[nH]c2ccccc12)NC(=O)[C@H](CCSC)NC(C)=O)[C@@H](C)O)C(=O)N[C@H]1CSSC[C@@H](C(=O)N[C@@H](Cc2c[nH]c3ccccc23)C(=O)N[C@H](C)C(N)=O)NC(=O)[C@H](CC(=O)O)NC(=O)[C@H](Cc2cnc[nH]2)NC(=O)[C@H](Cc2c[nH]c3ccccc23)NC(=O)[C@H](CC(N)=O)NC(=O)[C@H](CC(N)=O)NC1=O` [compound 10, Ac-M-W-T-I-C(3)-N-N-W-H-D-C(3)-W-(D-Ala)-CONH2] (Ac-MWTICNNWHDCW[dA]-NH2; disulfide 5-11), the Kd on DLL3 lay in the range of 100 to 300 nM. As for `CC(=O)N[C@@H](Cc1c[nH]c2ccccc12)C(=O)N[C@H](C(=O)N[C@H](C(=O)N[C@H]1CSCSC[C@@H](C(=O)N[C@@H](Cc2c[nH]c3ccccc23)C(=O)N2CCC[C@H]2C(N)=O)NC(=O)[C@H](CC(=O)O)NC(=O)[C@H](CCCCNC(=O)CN2CCN(CC(=O)O)CCN(CC(=O)O)CCN(CC(=O)O)CC2)NC(=O)[C@H](Cc2ccc3ccccc3c2)NC(=O)[C@H](CC(N)=O)NC(=O)[C@H](CC2CCNCC2)NC1=O)C1CCCCC1)[C@@H](C)O` [compound 398, Ac-W-T-(Chg)-C(1)-[3-(4-piperidinyl)-Ala]-N-(2Nal)-Lys(DOTA)-D-C(1)-W-P-CONH2] (Ac-WT[Chg]C[Ala(piperidin-4-yl)]N[2Nal]K(DOTA)DCWP-NH2; linker 4-10 via CH2), the Kd at DLL3 is less than 1 nM. Take `CCC(C)(C)[C@H](NC(=O)[C@@H](NC(=O)[C@H](Cc1c[nH]c2ccccc12)NC(C)=O)[C@@H](C)O)C(=O)N[C@H]1CSSC[C@@H](C(=O)N[C@@H](Cc2c[nH]c3ccccc23)C(=O)N2CCC[C@H]2C(N)=O)NC(=O)[C@H](CC(=O)O)NC(=O)[C@H](CCCCNC(=O)CN2CCN(CC(=O)O)CCN(CC(=O)O)CCN(CC(=O)O)CC2)NC(=O)[C@H](Cc2ccc3ccccc3c2)NC(=O)[C@H](CC(N)=O)NC(=O)C(CN2CCOCC2)NC1=O` (single isomer, unassigned) [compound 306, Ac-W-T-(α-tert-amylGly)-C(3)-[3-(1-morpholinyl)-Ala]-N-(2Nal)-Lys(DOTA)-D-C(3)-W-P-CONH2]: the Kd at DLL3 was less than 1 nM. Take `CC[C@H](C)[C@H](NC(=O)[C@@H](NC(=O)[C@H](Cc1cccc2ccccc12)NC(C)=O)[C@@H](C)O)C(=O)N[C@H]1CSSC[C@@H](C(=O)N[C@@H](Cc2c[nH]c3ccccc23)C(=O)N2CCC[C@H]2C(N)=O)NC(=O)[C@H](CC(=O)O)NC(=O)[C@H](Cc2cnc[nH]2)NC(=O)[C@H](Cc2c[nH]c3ccccc23)NC(=O)[C@H](CC(N)=O)NC(=O)[C@H](CC(N)=O)NC1=O` [compound 25, Ac-(1Nal)-T-I-C(3)-N-N-W-H-D-C(3)-W-P-CONH2] (Ac-[1Nal]TICNNWHDCWP-NH2; disulfide 4-10): at DLL3, the Kd was in the range of 10 to 100 nM. Turning to `CC(=O)N[C@@H](Cc1c[nH]c2ccccc12)C(=O)N[C@H](C(=O)N[C@H](C(=O)N[C@H]1CSSC[C@@H](C(=O)N[C@@H](Cc2c[nH]c3ccccc23)C(=O)N2CCC[C@H]2C(N)=O)NC(=O)[C@H](CC(=O)O)NC(=O)[C@H](Cc2cnc[nH]2)NC(=O)[C@H](Cc2c[nH]c3ccccc23)NC(=O)[C@H](CC(N)=O)NC(=O)[C@H](CC(N)=O)NC1=O)C1CCOCC1)[C@@H](C)O` [compound 338, Ac-W-T-(THPG)-C(3)-N-N-W-H-D-C(3)-W-P-CONH2] (Ac-WT[Gly(4-THP)]CNNWHDCWP-NH2; disulfide 4-10), the Kd at DLL3 lay in the range of 1 to 10 nM.

B1: SEQ ID NO 67 (peptide)
peptide: Ac-MWTICADWAQCWP-NH2
modifications: disulfide 5-11
SMILES: CC[C@H](C)[C@H](NC(=O)[C@@H](NC(=O)[C@H](Cc1c[nH]c2ccccc12)NC(=O)[C@H](CCSC)NC(C)=O)[C@@H](C)O)C(=O)N[C@H]1CSSC[C@@H](C(=O)N[C@@H](Cc2c[nH]c3ccccc23)C(=O)N2CCC[C@H]2C(N)=O)NC(=O)[C@H](CCC(N)=O)NC(=O)[C@H](C)NC(=O)[C@H](Cc2c[nH]c3ccccc23)NC(=O)[C@H](CC(=O)O)NC(=O)[C@H](C)NC1=O
B1 showed a Kd in data set [2] of 72 nM.
